Experimental data published in ChEMBL document CHEMBL1777698, “Synthesis and biological evaluation of unique stereodimers of sinomenine analogues as potential inhibitors of NO production” (Bioorg Med Chem, 2011).
Active and inactive are the calls of the source. The rule behind the calls is not given here.

How the values were obtained:
RAW264.7 [1] = test: Cytotoxicity against mouse RAW264.7 cells after 24 hrs by MTT assay; format: cell-based
RAW264.7 [2] = test: Inhibition of LPS-induced nitric oxide production in mouse RAW264.7 cells at 100 uM after 24 hrs by Griess reaction relative to control; format: functional; settings: for inhibition at 100 µM: Mus musculus, RAW264.7, 24 h
RAW264.7 [3] = test: Inhibition of LPS-induced nitric oxide production in mouse RAW264.7 cells at 50 uM after 24 hrs by Griess reaction relative to control; format: functional; settings: for inhibition at 50 µM: Mus musculus, RAW264.7, 24 h
RAW264.7 [4] = test: Inhibition of LPS-induced nitric oxide production in mouse RAW264.7 cells at 25 uM after 24 hrs by Griess reaction relative to control; format: functional; settings: for inhibition at 25 µM: Mus musculus, RAW264.7, 24 h
RAW264.7 [5] = test: Inhibition of LPS-induced iNOS mRNA expression in mouse RAW264.7 cells by RT-PCR analysis; format: functional, cell-based
RAW264.7 [6] = test: Inhibition of LPS-induced nitric oxide production in mouse RAW264.7 cells at 6.25 uM after 24 hrs by Griess reaction relative to control; format: functional
RAW264.7 [7] = test: Inhibition of LPS-induced nitric oxide production in mouse RAW264.7 cells at 3.125 uM after 24 hrs by Griess reaction relative to control; format: functional
RAW264.7 [8] = test: Inhibition of LPS-induced nitric oxide production in mouse RAW264.7 cells at 1.5625 uM after 24 hrs by Griess reaction relative to control; format: functional
RAW264.7 [9] = test: Cytotoxicity against mouse RAW264.7 cells at 6.25 uM after 24 hrs by MTT assay; format: cell-based; settings: raw264.7, 24 h
RAW264.7 [10] = test: Inhibition of LPS-induced nitric oxide production in mouse RAW264.7 cells at 12.5 uM after 24 hrs by Griess reaction relative to control; format: functional
RAW264.7 [11] = test: Inhibition of LPS-induced iNOS mRNA expression in mouse RAW264.7 cells at 100 uM by RT-PCR analysis; format: functional, cell-based

SMILES	IC50 (RAW264.7 [1]; Mus musculus, RAW264.7, 24 h) [µM]	inhibition (INH) (RAW264.7 [4]) [%]	inhibition at 50 µM (RAW264.7 [3]) [%]	inhibition at 100 µM (RAW264.7 [2]) [%]	inhibition at 25 µM (RAW264.7 [4]) [%]	other results
COC1=C[C@@H]2[C@@H]3Cc4c(-c5cc(OC)c(O)c6c5C[C@H]5[C@H]7C=C(OC)C(=O)C[C@@]67CCN5C)cc(OC)c(O)c4[C@]2(CCN3C)CC1=O (stereo in doubt; 1a) [listing 1 of 2 here]	> 100	-2.9				inhibition (INH) (RAW264.7 [2]): 23.7%; inhibition (INH) (RAW264.7 [3]): 15%
COc1cc(-c2cc(OC)c(O)c3c2C[C@H]2[C@H]4CCCC[C@@]34CCN2C)c2c(c1O)[C@]13CCCC[C@@H]1[C@H](C2)N(C)CC3 (stereo in doubt; 2a) [listing 1 of 2 here]						inhibition (RAW264.7 [5]): Dose-dependent effect
COc1cc(-c2cc(OC)c(O)c3c2C[C@H]2[C@H]4CCCC[C@@]34CCN2C)c2c(c1O)[C@]13CCCC[C@@H]1[C@H](C2)N(C)CC3 (stereo in doubt; 2a) [listing 2 of 2 here]	9.5					inhibition (INH) (RAW264.7 [6]): 41.6%; inhibition (INH) (RAW264.7 [7]): 17%; inhibition (INH) (RAW264.7 [8]): 2.7%; Activity (RAW264.7 [9]): Non-toxic
COc1cc(-c2cc(OC)c(O)c3c2C[C@H]2[C@H]4C[C@@H](OC)[C@H](NS(=O)(=O)c5ccc(C)cc5)C[C@@]34CCN2C)c2c(c1O)[C@@]13CCN(C)[C@@H](C2)[C@H]1C[C@@H](OC)[C@H](NS(=O)(=O)c1ccc(C)cc1)C3 (stereo in doubt; 4b)		-2.9	-2.2			IC50 (RAW264.7 [1]; raw264.7): 72.9 µM; inhibition (INH) (RAW264.7 [10]): -4%
COc1cc(-c2cc(OC)c(O)c3c2C[C@H]2[C@H]4C[C@@H](OC)[C@H](NS(C)(=O)=O)C[C@@]34CCN2C)c2c(c1O)[C@@]13CCN(C)[C@@H](C2)[C@H]1C[C@@H](OC)[C@H](NS(C)(=O)=O)C3 (stereo in doubt; 5a)	> 100	-0.2		9.3		inhibition (INH) (RAW264.7 [3]): 0.2%
COC1=C[C@@H]2[C@@H]3Cc4c(-c5cc(OC)c(O)c6c5C[C@@H]5NCC[C@]67CC(=O)C(OC)=C[C@H]57)cc(OC)c(O)c4[C@]2(CCN3)CC1=O (stereo in doubt; 3b)		-11.6				inhibition (INH) (RAW264.7 [2]): -7.1%; inhibition (INH) (RAW264.7 [3]): -11%
COC1=C[C@@H]2[C@@H]3Cc4c(-c5cc(OC)c(O)c6c5C[C@H]5[C@H]7C=C(OC)C(=O)C[C@@]67CCN5C)cc(OC)c(O)c4[C@]2(CCN3C)CC1=O (stereo in doubt; 1a) [listing 2 of 2 here]						inhibition (RAW264.7 [5]): Dose-dependent effect
COc1cc(-c2cc(OC)c(O)c3c2C[C@H]2[C@H]4C[C@@H](OC)[C@H](NS(C)(=O)=O)C[C@@]34CCN2C)c2c(c1O)[C@@]13CCN(C)[C@@H](C2)[C@H]1C[C@@H](OC)[C@H](NS(C)(=O)=O)C3 (stereo in doubt; 5b)		-8.4				inhibition (INH) (RAW264.7 [2]): 9.9%; inhibition (INH) (RAW264.7 [3]): 8.6%
COc1ccc2c(c1O)[C@]13CCCC[C@@H]1[C@H](C2)N(C)CC3	> 100		28.1	30.6	12.1	inhibition (RAW264.7 [5]): Dose-dependent effect
COc1ccc2c(c1O)[C@@]13CCN(C)[C@@H](C2)[C@H]1C[C@@H](OC)[C@H](NS(C)(=O)=O)C3	> 100		-3.7	-3.5	-2.3	
COc1cc(-c2cc(OC)c(O)c3c2C[C@H]2[C@H]4Cc5nc6ccccc6nc5C[C@@]34CCN2C)c2c(c1O)[C@@]13CCN(C)[C@@H](C2)[C@H]1Cc1nc2ccccc2nc1C3	6.3					inhibition at 1.5625 µM (RAW264.7 [8]; Mus musculus, RAW264.7, 24 h): 8.4%
COC1=C[C@@H]2[C@@H]3Cc4ccc(OC)c(O)c4[C@]2(CCN3)CC1=O	> 100		-0.8	10.7	-6.1	
COc1ccc2c(c1O)[C@@]13CCN(C)[C@@H](C2)[C@H]1C[C@@H](OC)[C@H](NS(=O)(=O)c1ccc(C)cc1)C3	> 100		30	39.8	10.9	inhibition (RAW264.7 [5]): Dose-dependent effect
COc1cc(-c2cc(OC)c(O)c3c2C[C@H]2[C@H]4C[C@@H](OC)[C@H](NS(=O)(=O)c5ccc(C)cc5)C[C@@]34CCN2C)c2c(c1O)[C@@]13CCN(C)[C@@H](C2)[C@H]1C[C@@H](OC)[C@H](NS(=O)(=O)c1ccc(C)cc1)C3 (stereo in doubt; 4a)	43.5	4.9				inhibition (INH) (RAW264.7 [10]): 2.6%
COC1=C[C@@H]2[C@@H]3Cc4c(-c5cc(OC)c(O)c6c5C[C@@H]5NCC[C@]67CC(=O)C(OC)=C[C@H]57)cc(OC)c(O)c4[C@]2(CCN3)CC1=O (stereo in doubt; 3a)	> 100	-9.3				inhibition (INH) (RAW264.7 [2]): 16%; inhibition (INH) (RAW264.7 [3]): -12.6%
COC1=C[C@@H]2[C@@H]3Cc4ccc(OC)c(O)c4[C@]2(CCN3C)CC1=O [SINOMENINE]	> 100		0.1	12.8	-3	inhibition (RAW264.7 [11]): Active
COC1=C[C@@H]2[C@@H]3Cc4c(-c5cc(OC)c(O)c6c5C[C@H]5[C@H]7C=C(OC)C(=O)C[C@@]67CCN5C)cc(OC)c(O)c4[C@]2(CCN3C)CC1=O (stereo in doubt; 1b)		-1.3				inhibition (INH) (RAW264.7 [2]): -2.1%; inhibition (INH) (RAW264.7 [3]): 6.6%
COc1ccc2c(c1O)[C@@]13CCN(C)[C@@H](C2)[C@H]1Cc1nc2ccccc2nc1C3	57.9				11.4	inhibition at 12.5 µM (RAW264.7 [10]; Mus musculus, RAW264.7, 24 h): 1.3%
COc1cc(-c2cc(OC)c(O)c3c2C[C@H]2[C@H]4CCCC[C@@]34CCN2C)c2c(c1O)[C@]13CCCC[C@@H]1[C@H](C2)N(C)CC3 (stereo in doubt; 2b) [listing 1 of 2 here]						inhibition (RAW264.7 [5]): Dose-dependent effect
N=C(N)NN [PIMAGEDINE]			74.9	86	52.5	
COc1cc(-c2cc(OC)c(O)c3c2C[C@H]2[C@H]4CCCC[C@@]34CCN2C)c2c(c1O)[C@]13CCCC[C@@H]1[C@H](C2)N(C)CC3 (stereo in doubt; 2b) [listing 2 of 2 here]						IC50 (RAW264.7 [1]; raw264.7): 14.2 µM; inhibition at 6.25 µM (RAW264.7 [6]; Mus musculus, RAW264.7, 24 h): 35.2%; inhibition at 3.125 µM (RAW264.7 [7]; Mus musculus, RAW264.7, 24 h): 16.9%; inhibition (INH) (RAW264.7 [8]): -4.4%
